Source: patent publication US10166271B2, “Methods for promoting hair growth” (THE REGENTS OF THE UNIVERSITY OF CALIFORNIA, priority 2006, dated 2019)
Where “and” joins values, the source holds several entries; their conditions need not be identical. Equal values may be shown once.

What was measured:
Type in all cases: in vivo
CRF-OE mice [1] = assay: Subcutaneous implanted mini-pump in CRF-OE mice, hair growth; details: 10 μg/mouse/day for 7 days, implanted mini-pump sc; CRF-OE male and female mice 5-7 months old
Excerpt: Eight (8) out of 9 (89%) female mice responded to injected (sc) astressin B with increased pigmentation and hair growth. The remaining […] female mice were observed qualitatively. Similarly, 4 out of 4 (100%) of the male mice responded to astressin B with increased pigmentation and hair growth. In contrast, none of the astressin 2B-injected mice (0%) grew significant amounts of hair.

young CRF-OE mice = assay: Cyclic CRF antagonists, prevention of hair loss in young CRF-OE mice (Example 11); details: at least four weeks after the final administration
Excerpt: Although mice are particularly described, one skilled in the art will appreciate that other laboratory animals and human subjects can be used, and doses adjusted accordingly (for example based on the weight of the subject, or the area to which the peptide is to be applied). Similarly, although particular modes of administration are described, one will appreciate that variations can be made (such as those disclosed herein and those known in the art).
Any method of administration can be used, including injection, transdermal/topical delivery, or combinations thereof.
In one example, therapeutic peptides are administered via injection. For example, mice can be injected subcutaneously or intraperitoneally with at least 0.05 μg, at least 0.5 μg, at least 5 μg, at least 50 μg, or at least 500 μg of one or more therapeutic peptides (for example 0.5-50 μg peptide, 0.5-10 μg peptide, or 5 μg peptide). The peptide can be administered in 0.1 ml sterile saline (or 5% mannitol) once per day for at least 5 consecutive days, such as at least 10 days, at least 30 days, or at least 60 days. […] As a negative control, CRF-OE mice receive saline alone (such as 10-100 μl) or 5 μg astressin 2B in 0.1 ml saline.
In another example, therapeutic peptides are administered topically or transdermally. […]

CRF-OE mice [2] = assay: Repeat sc experiment in female CRF-OE mice (4.5 months old): skin pigment and hair growth scores; parameters: key to Skin pigmentation (Pg) score: 0 = bright pink skin, 10 = black pigmentation of entire region; key to Ventral Abdomen Hair Growth Score (VAb) / Back Hair Growth Score (BK): 0 = no change in hair, 10 = full hair growth in test area; details: sc 5 μg/mouse x 5 days
Experimental: Hair growth in CRF-OE mice was assessed using the hair growth scale developed by Vegesna et al. […], 2002) modified to account for phenotypic differences between CRF-OE mice. Scores were made visually as well as using photographs of each mouse at a weekly interval. The degree of alopecia varied between individual CRF-OE mice; thus, the percent difference between the amount of hair present in the test area (described below) before and 4 weeks after treatment was converted to a score of 0-10. A zero score corresponded to a no change in the amount of hair in the test area and a score of 10 corresponded to full hair growth in the entire test area. The scale for monitoring hair growth in CRF-OE mice is more particularly described in Table 2.
Pigmentation of the skin (also referred to as skin color) in the test region was also measured because, in C57BL/6 mice, the skin darkens at the onset of hair growth. A pigmentation score from 0-10 was given to each mouse with a score of 0 corresponding to bright pink skin color/pigment in the entire test region, a score of 1-5 corresponding to increasing intensity of a pale greyish color/pigment of skin in the test region, a score of 6-9 corresponding to increasing but non-confluent darker color/pigment of skin in the test region, and a score of 10 corresponding to black pigmentation of the entire test region. Pigmentation was measured one week after the fifth and final injection because changes (if any) in pigmentation are substantially complete by that time.
Experiments were repeated in female CRF-OE mice (4.5 months old) to confirm the results. Mice were injected with astressin B (5 μg/mouse, 10 mice) or saline (5 mice) for 5 days. Skin pigment and hair growth scores were given as described before. Five astressin B-treated and five saline injected mice were sacrificed for skin tissue collection at seven days post last injection. Additional mice (5) injected with astressin B were sacrificed on day 14. Five littermate wild type (WT) mice were used as normal control. Adrenal gland and abdominal fat weights were also checked at sacrifice of each mouse.
CRF-OE mice (approximately 4 months old) with fully developed alopecia on their backs were injected intraperitoneally (ip) with equal volumes (0.1 ml) of either saline or astressin B (5 μg/mouse/day) for 5 consecutive days. Skin pigment score and hair growth (on the back) score were determined as described in Example 1. In addition, because adult CRF-OE mice also lose ventral abdomen hair, a ventral abdomen (Vab) hair growth score was determined. The area considered for scoring ventral abdomen hair growth was delineated, in the front (anteriorly), by a horizontal line across the tip of the xifoid process (distal sternum), in the rear (posteriorly), by a horizontal line joining the back of the thighs along the anus, and, laterally, by a straight line along the lateral side of the ventral abdomen on left and right sides.

[3] = Before (Week 0), individual mice and Ave., listed as AB
[4] = Before (Week 0), individual mice and Ave., listed as AB, mean
[5] = Week 1, individual mice and Ave., listed as AB
[6] = Week 1, individual mice and Ave., listed as AB, mean

Substance: cyclo(31-34)[DPhe11, His12, CαMeLeu13,39, Nle17, Glu31, Lys34]Ac-Sau(8-40) [Astressin 2B, reference compound]
- Hair growth for 1 month post treatment (CRF-OE mice [1]): no hair growth was observed
- Hair in the test area (young CRF-OE mice): ultimately develop alopecia in the test area

Substance: (cyclo 30-33)[DPhe12, Nle21,38, Cml27,40, Glu30, Lys33]Ac-h/rCRF9-41 [Astressin B]
- Skin pigmentation (Pg) score (CRF-OE mice [2]; Before (Week 0), individual mice and Ave.): 0
- Back Hair Growth Score (BK) (CRF-OE mice [2]; [3]): 0.5 (4×) and 1 (2×) and 0 (4×)
- Ventral Abdomen Hair Growth Score (VAb) (CRF-OE mice [2]; [3]): 0.5 (4×) and 0.25 (6×)
- Back Hair Growth Score (BK) (CRF-OE mice [2]; [4]): 0.7 and 0.1
- Ventral Abdomen Hair Growth Score (VAb) (CRF-OE mice [2]; [4]): 0.35
- Skin pigmentation (Pg) score (CRF-OE mice [2]; Before (Week 0), individual mice and Ave., mean): 0
- Back Hair Growth Score (BK) (CRF-OE mice [2]; [5]): 10 (4×) and 9.5 (3×) and 7 and 9 and 8.5
- Skin pigmentation (Pg) score (CRF-OE mice [2]; [5]): 10 (4×) and 9.5 (3×) and 7 and 9 and 8.5
- Ventral Abdomen Hair Growth Score (VAb) (CRF-OE mice [2]; [5]): 0.5 (2×) and 0.25 (7×) and 0.75
- Back Hair Growth Score (BK) (CRF-OE mice [2]; [6]): 9.5 and 9.1
- Skin pigmentation (Pg) score (CRF-OE mice [2]; [6]): 9.5 and 9.1
- Ventral Abdomen Hair Growth Score (VAb) (CRF-OE mice [2]; [6]): 0.35
- Ventral Abdomen Hair Growth Score (VAb) (CRF-OE mice [2]; Week 2, 14 days follow-up group, individual mice and Ave.): 0.5
- Back Hair Growth Score (BK) (CRF-OE mice [2]; Week 2, 14 days follow-up group, individual mice and Ave., listed as AB): 5 and 9.5 and 8 (2×) and 10
- Back Hair Growth Score (BK) (CRF-OE mice [2]; Week 2, 14 days follow-up group, individual mice and Ave., listed as AB, mean): 8.1
- Ventral Abdomen Hair Growth Score (VAb) (CRF-OE mice [2]; Week 2, 14 days follow-up group, individual mice and Ave., mean): 0.5
